For three compounds, Kd results are on record in PMC7916972, “Therapeutic Targeting of Fumaryl Acetoacetate Hydrolase in Hereditary Tyrosinemia Type I” (International Journal of Molecular Sciences, 2021).

Test [1] concerns the target T1, Fumarylacetoacetate hydrolase (WT FAH) (Homo sapiens, UniProt P16930).
T1 sequence (P16930 2-419): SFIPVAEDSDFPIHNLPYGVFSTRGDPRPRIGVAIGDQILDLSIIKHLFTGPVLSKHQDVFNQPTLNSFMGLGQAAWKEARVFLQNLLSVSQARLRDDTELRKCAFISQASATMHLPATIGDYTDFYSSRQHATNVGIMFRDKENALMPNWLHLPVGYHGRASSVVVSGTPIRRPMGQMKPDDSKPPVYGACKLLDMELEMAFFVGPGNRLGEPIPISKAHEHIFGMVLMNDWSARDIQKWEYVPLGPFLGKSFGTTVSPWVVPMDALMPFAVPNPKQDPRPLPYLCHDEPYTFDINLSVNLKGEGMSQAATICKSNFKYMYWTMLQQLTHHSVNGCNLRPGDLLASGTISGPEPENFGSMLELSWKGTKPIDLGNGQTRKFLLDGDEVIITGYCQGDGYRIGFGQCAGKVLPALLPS
Description: STD NMR titration; methyl-TROSY M140 shift. The class given is binding.

In test [2] the target is T1, Fumarylacetoacetate hydrolase (WT FAH). Description: STD NMR titration; methyl-TROSY M140 splitting. The format is binding.

As for `C(#Cc1ccncc1)c1ccncc1` [G2.HT1.1], the Kd in test [1] stood at 20 µM.

For the compound `C#Cc1ccncc1` [G1.30.B10], the Kd in test [2] stood at 235 µM.

For `Cc1ccnc(NC(=O)c2ccc(C)c(N)c2)c1` [G2.HT1.4], the Kd in test [1] is 21 µM.

As usually defined, the Kd is the constant that tells how readily two partners part at equilibrium.
